For one compound, inhibition results are on record in PMC11233931, “Remodeling tumor‐associated macrophage for anti‐cancer effects by rational design of irreversible inhibition of mitogen‐activated protein kinase‐activated protein kinase 2” (MedComm, 2024).

Assay in all cases: Eurofins kinase selectivity profile against 380 other human recombinant kinases (Table S2)
Holding throughout (type): biochemical

In assay [1] the target is T1, 380 human recombinant protein kinases (Homo sapiens, UniProt Q13557).
T1 construct: purchased Eurofins (Celle Lévescault)
Conditions: CaMKIIδ(h), read-out: Inhibition rate. In outline:
(§1)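 Commercial selectivity screen of the test compound against a panel of 380 human recombinant protein kinases, run by an outside contractor at several compound concentrations to check whether its potency was specific for MK2.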

Assay [2] has as its target T2, 380 human recombinant protein kinases (Homo sapiens, UniProt Q6PHR2).
T2 construct: purchased Eurofins (Celle Lévescault)
T2 sequence (Q6PHR2 1-472): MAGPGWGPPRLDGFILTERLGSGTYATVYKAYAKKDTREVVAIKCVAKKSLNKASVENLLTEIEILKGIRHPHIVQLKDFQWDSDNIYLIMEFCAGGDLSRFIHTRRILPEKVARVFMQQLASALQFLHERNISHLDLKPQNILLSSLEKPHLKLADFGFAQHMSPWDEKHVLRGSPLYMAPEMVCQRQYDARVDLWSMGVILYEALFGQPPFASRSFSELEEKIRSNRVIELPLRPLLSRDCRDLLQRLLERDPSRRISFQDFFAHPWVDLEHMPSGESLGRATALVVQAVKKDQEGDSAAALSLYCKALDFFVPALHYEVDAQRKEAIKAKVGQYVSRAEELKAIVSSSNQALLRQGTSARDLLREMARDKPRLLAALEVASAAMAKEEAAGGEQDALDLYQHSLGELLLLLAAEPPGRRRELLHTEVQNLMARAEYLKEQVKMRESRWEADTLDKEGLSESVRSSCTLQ
Conditions: ULK3(h), read-out: Inhibition rate (%). In outline: as §1

Assay [3] addresses T3, 380 human recombinant protein kinases (Homo sapiens, UniProt Q9NRM7).
T3 construct: purchased Eurofins (Celle Lévescault)
T3 sequence (Q9NRM7 1-1088): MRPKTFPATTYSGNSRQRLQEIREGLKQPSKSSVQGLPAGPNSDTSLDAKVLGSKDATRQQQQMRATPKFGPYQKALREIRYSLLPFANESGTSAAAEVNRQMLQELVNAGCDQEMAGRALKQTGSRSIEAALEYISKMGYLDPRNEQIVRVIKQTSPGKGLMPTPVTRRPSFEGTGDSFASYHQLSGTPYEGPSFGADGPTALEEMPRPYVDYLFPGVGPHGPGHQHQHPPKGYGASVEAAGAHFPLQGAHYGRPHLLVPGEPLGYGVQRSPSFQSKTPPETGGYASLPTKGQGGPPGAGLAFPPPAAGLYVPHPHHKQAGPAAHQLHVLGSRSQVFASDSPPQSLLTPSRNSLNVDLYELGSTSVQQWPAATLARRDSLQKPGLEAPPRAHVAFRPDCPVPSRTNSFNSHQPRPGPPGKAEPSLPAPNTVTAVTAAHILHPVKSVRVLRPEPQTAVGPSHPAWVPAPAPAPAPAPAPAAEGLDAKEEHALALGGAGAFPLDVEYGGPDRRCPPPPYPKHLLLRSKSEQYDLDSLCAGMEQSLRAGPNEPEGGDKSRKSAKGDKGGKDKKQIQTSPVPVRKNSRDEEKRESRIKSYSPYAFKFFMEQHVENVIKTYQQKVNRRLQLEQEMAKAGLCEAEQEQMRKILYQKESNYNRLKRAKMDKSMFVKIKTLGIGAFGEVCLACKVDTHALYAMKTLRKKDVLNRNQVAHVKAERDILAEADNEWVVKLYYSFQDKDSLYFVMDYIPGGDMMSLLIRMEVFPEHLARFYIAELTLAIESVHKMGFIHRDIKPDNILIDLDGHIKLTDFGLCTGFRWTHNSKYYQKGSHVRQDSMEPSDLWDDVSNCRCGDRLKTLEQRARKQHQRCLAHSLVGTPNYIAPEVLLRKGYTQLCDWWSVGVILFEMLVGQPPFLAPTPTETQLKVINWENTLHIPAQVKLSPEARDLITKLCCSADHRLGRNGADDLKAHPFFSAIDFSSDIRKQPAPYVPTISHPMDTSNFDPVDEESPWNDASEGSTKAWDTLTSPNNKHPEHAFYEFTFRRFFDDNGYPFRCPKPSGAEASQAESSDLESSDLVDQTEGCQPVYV
Conditions: LATS2(h), read-out: Inhibition rate. An outline of the steps:
as §1

Assay [4] addresses T4, 380 human recombinant protein kinases (Homo sapiens, UniProt Q13188).
T4 construct: purchased Eurofins (Celle Lévescault)
T4 sequence (Q13188 1-491): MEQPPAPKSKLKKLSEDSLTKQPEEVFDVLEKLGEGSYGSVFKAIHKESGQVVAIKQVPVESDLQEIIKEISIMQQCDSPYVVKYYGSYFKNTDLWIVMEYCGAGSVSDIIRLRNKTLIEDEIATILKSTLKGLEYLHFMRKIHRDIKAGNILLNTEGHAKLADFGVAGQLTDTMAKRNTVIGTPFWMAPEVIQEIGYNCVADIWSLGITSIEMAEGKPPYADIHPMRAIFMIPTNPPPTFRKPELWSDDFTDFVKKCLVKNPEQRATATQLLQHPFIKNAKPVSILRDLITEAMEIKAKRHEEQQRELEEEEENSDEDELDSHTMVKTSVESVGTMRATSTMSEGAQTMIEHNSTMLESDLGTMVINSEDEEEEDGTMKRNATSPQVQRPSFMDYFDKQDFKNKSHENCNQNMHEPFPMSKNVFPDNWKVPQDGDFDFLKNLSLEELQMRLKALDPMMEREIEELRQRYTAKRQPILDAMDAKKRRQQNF
Conditions: MST2(h), read-out: Inhibition rate. In outline: as §1

The target in assay [5] is T5, 380 human recombinant protein kinases (Homo sapiens, UniProt P00519, Q252H).
T5 construct: purchased Eurofins (Celle Lévescault)
Conditions: Abl (Q252H) (h), read-out: Inhibition rate. In outline:
as §1

T1 sequence (Q13557 whole entry): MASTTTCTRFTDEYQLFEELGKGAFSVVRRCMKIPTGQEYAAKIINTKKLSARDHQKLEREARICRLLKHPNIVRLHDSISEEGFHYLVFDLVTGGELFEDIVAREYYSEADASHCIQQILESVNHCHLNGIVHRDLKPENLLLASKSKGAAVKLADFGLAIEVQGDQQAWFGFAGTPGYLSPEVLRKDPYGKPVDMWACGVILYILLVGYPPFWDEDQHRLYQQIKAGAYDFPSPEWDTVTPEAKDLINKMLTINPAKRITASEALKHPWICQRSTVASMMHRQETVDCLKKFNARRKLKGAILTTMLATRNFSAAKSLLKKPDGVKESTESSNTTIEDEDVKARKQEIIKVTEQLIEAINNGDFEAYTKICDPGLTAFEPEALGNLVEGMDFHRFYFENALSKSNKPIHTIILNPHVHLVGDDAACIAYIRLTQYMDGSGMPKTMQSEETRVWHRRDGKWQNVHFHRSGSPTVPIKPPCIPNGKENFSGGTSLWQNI

Turning to `C=CC(=O)Nc1cc(-c2cc(-c3cc4c([nH]3)CCNC4=O)ccn2)ccc1OC(F)(F)F` [compound 11], the inhibition at 0.01 µM in assay [1] (10 nM) is -7%; in assay [2] (10 nM) it was 8%; in assay [3] (10 nM), 1%; in assay [4] (10 nM) it was -7%; in assay [5] (10 nM), -6%. Besides, the inhibition at 0.1 µM came out at 11% in assay [1] (100 nM); 3% in assay [2] (100 nM); 8% in assay [3] (100 nM); 0% in assay [4] (100 nM); 5% in assay [5] (100 nM). Besides, the inhibition at 1 µM was 20% in assay [1] (1000 nM); -4% in assay [2] (1000 nM); 4% in assay [3] (1000 nM); 6% in assay [4] (1000 nM); 27% in assay [5] (1000 nM).
